Target: hIP6K1 (IP6K1) (Homo sapiens, UniProt Q92551)
Assay: kinase product identified by Dipp1 cocrystal structure
Type: biochemical
Conditions: kinase site

Sequence of hIP6K1 (IP6K1) (Q92551 whole entry): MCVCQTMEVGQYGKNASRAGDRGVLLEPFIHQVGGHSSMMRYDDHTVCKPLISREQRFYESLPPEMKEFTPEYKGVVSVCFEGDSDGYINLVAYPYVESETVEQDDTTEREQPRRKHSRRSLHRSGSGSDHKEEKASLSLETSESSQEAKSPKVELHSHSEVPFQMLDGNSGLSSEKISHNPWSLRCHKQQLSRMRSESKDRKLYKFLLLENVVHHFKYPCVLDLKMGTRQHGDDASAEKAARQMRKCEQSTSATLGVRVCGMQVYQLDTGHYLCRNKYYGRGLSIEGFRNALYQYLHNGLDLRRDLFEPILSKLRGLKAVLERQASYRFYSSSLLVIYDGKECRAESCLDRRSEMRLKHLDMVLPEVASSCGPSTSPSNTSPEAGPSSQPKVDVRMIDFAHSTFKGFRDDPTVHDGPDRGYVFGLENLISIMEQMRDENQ

## O=P(O)(O)O[C@H]1[C@@H](OP(=O)(O)O)[C@H](OP(=O)(O)O)[C@@H](OP(=O)(O)OP(=O)(O)O)[C@H](OP(=O)(O)O)[C@H]1OP(=O)(O)O [5-IP7]
  kinase product identified by Dipp1 cocrystal structure: IP6K1 IP7 product/DIPP complex confirms the stereomer as unambiguously 5-IP7
